Patent US20110263454A1, “Methods of Identifying Functional Characteristics of Promoters, Transcription Modifying Proteins and Transcription Modulating Agents” (Salk Institute for Biological Studies, priority 2008, published 2011)

Legend:
[1] = system: RevErba promoter; test: NHR-promoter luciferase screen, RevErba (RVRa) promoter; type: cell-based; set-up: key to mRevErba promoter reporter activity / Normalized Luc. act., normalized to control: luciferase activity normalized to lacZ and to control (no NHR/ligand); details: for Luc. act., normalized to lacZ / Normalized Luc. act., normalized to control / negative reciprocal of normalized Luc. act. (fold repression; Table 33) / normalized Luc. act. on a logarithmic scale (column without head, Table 33): RVRa promoter; for Luc. act., normalized to lacZ / Normalized Luc. act., normalized to control: HR component without or with ligand; for negative reciprocal of normalized Luc. act. (fold repression; Table 33): given only where activity is below control; for normalized Luc. act. on a logarithmic scale (column without head, Table 33): log10 of activity normalized to control; for mRevErba promoter reporter activity: transcription factor +/- ligand, control = 1.00
Procedure: (§1) Briefly, there were co-expressed 50 ng of each NHR/NHR homodimer or NHR/RXR heterodimer with 100 ng promoter/luciferase construct and 50 ng of LacZ (as a control for transfection efficiency) in CV-1 cells using Fugene HD (Roche) as a transfection reagent (alternatively or additionally, a CMV-YFP construct can be used as a transfection control). Each of the nuclear hormone receptors that were used in these experiments was cloned into a pcDNA3.1 vector and comprised a C-terminally linked V5H6 tag.
(§2) The promoters that facilitate transcription of the indicated gene products that were tested using the protocols described herein are listed in the first row of the table. The nuclear hormone receptors and, where applicable, ligands that were assayed for their transcriptional effects on the promoters are listed in the first column of the table. The data represent the luciferase activity of each sample normalized to both the lacZ activity of that sample and to a control, e.g., no NHR or ligand, as customary in the art. As described previously, these normalizations allow the transcriptional activity of each reporter cell to be compared to other samples.
The control data of each table are shown in their last rows.

[2] = system: hCYP3A4 promoter; test: NHR-promoter luciferase screen, hCYP3A4 promoter; type: cell-based, human; details: for Luc. act., normalized to lacZ / Normalized Luc. act., normalized to control: CYP3A4 promoter, HR/ligand component; for hCYP3A4 promoter reporter activity: transcription factor +/- ligand, control = 1.00
Procedure: as §1, §2
(§3) Tables 7-40 show the transcriptional effects of the hormone receptors, and, where applicable, ligands (orphan receptors are screened without ligand), on each individual promoter. […] The control data of each table are shown in their last rows.

[3] = system: mNPY promoter; test: NHR-promoter luciferase screen, mNPY promoter; type: cell-based, mouse; details: for Results of assays of transcription factor (+/- ligand) with mNPY: Table 6d, luciferase activity relative to control (control = 1.00); for Luc. act., normalized to lacZ / Normalized Luc. act., normalized to control: mNPY promoter, HR component with or without ligand; for Normalized Luc. act., normalized to control: relative to control
Procedure: (§4) The use, feasibility, and reproducibility of the functional NHR-promoter screen in a 48-well format have been tested validated. Briefly, there were co-expressed 50 ng of each NHR/NHR homodimer or NHR/RXR heterodimer with 100 ng promoter/luciferase construct and 50 ng of LacZ (as a control for transfection efficiency) in CV-1 cells using Fugene HD (Roche) as a transfection reagent (alternatively or additionally, a CMV-YFP construct can be used as a transfection control). Each of the nuclear hormone receptors that were used in these experiments was cloned into a pcDNA3.1 vector and comprised a C-terminally linked V5H6 tag. Twenty-four hours after transfection, appropriate ligands were added, where applicable, (see Table 5 for various ligands and concentrations and after 48 hrs, samples were assayed for luciferase and LacZ activity. To measure for luciferase activity 15 ul of sample was added to 30 ul of luciferase buffer (20 mM tricine, 1.07 mM MgCarbonate, 2.67 mM MgSulfate, 0.1 mM Naz-EDTA, 5 mM DTT, 5 mM ATP, 0.15 mg/ml CoA, 0.5 mM Luciferin), mixed briefly, and run in a Perkin Elmer Victor 5 luminometer. Thus, the functional NHR-promoter screen was used to observe the transcriptional activity of 29 promoters from various physiological pathways including inflammation, lipid and sugar metabolism, cholesterol transport, xenobiotic metabolism, and circadian rhythm.
as §2, §3

[4] = system: hMDR1 promoter; test: NHR-promoter luciferase screen, hMDR1 promoter; type: cell-based, human; details: for Luc. act., normalized to lacZ / Normalized Luc. act., normalized to control: MDR1 promoter, HR/ligand component; for hMDR1 promoter reporter activity: transcription factor +/- ligand, control = 1.00
Procedure: as §4, §2, §3

[5] = system: hPOMC promoter; test: NHR-promoter luciferase screen, hPOMC promoter; type: cell-based, human; details: for Luc. act., normalized to lacZ / Normalized Luc. act., normalized to control: hPOMC promoter, HR/ligand component; for hPOMC promoter reporter activity: transcription factor +/- ligand, control = 1.00; for luciferase/LacZ, hPOMC (selected results): hPOMC promoter-luciferase, NHR +/- ligand, control = 1.0
Procedure: as §4, §2, §3

Substance | Luc. act., normalized to lacZ [1] | Normalized Luc. act., normalized to control [1] | negative reciprocal of normalized Luc. act. (fold repression; Table 33) [1] | normalized Luc. act. on a logarithmic scale (column without head, Table 33) [1] | mRevErba promoter reporter activity [1] | Luc. act., normalized to lacZ [2] | Normalized Luc. act., normalized to control [2] | hCYP3A4 promoter reporter activity [2] | Results of assays of transcription factor (+/- ligand) with mNPY [3] | Luc. act., normalized to lacZ [3] | Normalized Luc. act., normalized to control [3] | Luc. act., normalized to lacZ [4] | Normalized Luc. act., normalized to control [4] | hMDR1 promoter reporter activity [4] | Luc. act., normalized to lacZ [5] | Normalized Luc. act., normalized to control [5] | hPOMC promoter reporter activity [5] | luciferase/LacZ, hPOMC (selected results) [5]
AR: Androsterone Receptor (NR3C4), cDNA driver | 13.5 | 0.5 | −2.065 | −0.31 | 0.48 | 3.9 | 0.9 | 0.88 | 1.12 | 93.8 | 1.1 | 0.2 | 0.6 | 0.60 | 1.8 | 0.4 | 0.42 | 
ERR1: Estrogen Related Receptor α (NR3B1, ERRa), cDNA driver | 33.3 | 1.2 |  | 0.08 | 1.19 | 4.5 | 1.0 | 1.01 | 0.83 | 69.6 | 0.8 | 0.4 | 1.2 | 1.20 | 2.7 | 0.6 | 0.63 | 
GR: Glucocorticoid Receptor (NR3C1), cDNA driver | 12.3 | 0.4 | −2.269 | −0.36 | 0.44 | 2.0 | 0.5 | 0.45 | 0.57 | 47.8 | 0.6 | 0.1 | 0.4 | 0.39 | 0.7 | 0.2 | 0.16 | 0.2
LXRa: Liver X Receptor α (NR1H3), cDNA driver |  |  |  |  |  | 4.1 | 0.9 | 0.93 | 0.67 | 56.2 | 0.7 | 0.2 | 0.5 | 0.51 | 6.8 | 1.6 | 1.58 | 
NR4a1: NR4a1 (NR4A1; NUR77), nuclear hormone receptor cDNA driver | 24.6 | 0.9 | −1.1361 | −0.06 | 0.88 | 6.2 | 1.4 | 1.40 | 0.92 | 77.0 | 0.9 | 0.4 | 1.3 | 1.29 | 15.3 | 3.6 | 3.57 | 3.6
PNR: Photoreceptor-specific Nuclear Receptor (NR2E3), cDNA driver | 7.1 | 0.3 | −3.936 | −0.60 | 0.25 | 2.2 | 0.5 | 0.50 | 2.00 | 168.3 | 2.0 | 0.2 | 0.5 | 0.52 | 1.5 | 0.3 | 0.34 | 
PPARa: Peroxisome proliferator activated receptor α (NR1C1), cDNA driver | 52.1 | 1.9 |  | 0.27 | 1.86 | 3.4 | 0.8 | 0.76 | 0.62 | 51.7 | 0.6 | 0.2 | 0.5 | 0.51 | 2.4 | 0.6 | 0.57 | 
PPARg: Peroxisome proliferator activated receptor γ (NR1C3), cDNA driver | 40.6 | 1.5 |  | 0.16 | 1.45 | 4.7 | 1.1 | 1.06 | 1.14 | 95.6 | 1.1 | 0.3 | 0.8 | 0.83 | 2.8 | 0.6 | 0.65 | 0.6
